Experimental data: US20190256564A1, “NEMERTEA-DERIVED BIOACTIVE COMPOUNDS” (priority 2016, published 2019)
pIC50: −log10 of the molar value.

System: Artemia salina
Details: in vivo, 24 h
Protocol: Alpha-Nemertides were prepared as described in Example 2, above, or by manual synthesis […] on 2-chlorotrityl resin as described in the Material and methods section below. […]. The brine shrimp assay is commonly used as toxicity assay, but is particularly suitable in the current work as a model system for crustaceans. In the first round of experiments Nemertides α-1, α-2, α-5, and α-6 were evaluated. […]. Artemia salina Assay of Alpha-Nemertides. 100 μl of sea water containing about 20-30 brine shrimps were added to each experimental well of a 96-well microplate. 100 μl of peptide solutions were then added to each well. As a control, some wells were filled with 100 μl of seawater containing shrimps and 100 μl milliQwater. The plates were covered and incubated in the dark at room temperature for 24 hours. After 24 hours, 10 second video clips of each well were filmed through a microscope. The shrimps were subsequently counted and categorized as either dead (not moving), affected (moving slowly, mostly at the bottom of the well) or normal (moving normally compared to the control at all levels of the well). The shrimps were then immobilized by addition of 100 μl of methanol. After 1 hour the total number of shrimps in each well was counted and the ratio (dead+affected)/total was calculated.

CC[C@H](C)[C@@H]1NC(=O)[C@@H](NC(=O)CN)CSSC[C@@H]2NC(=O)[C@@H]3CSSC[C@@H](C(=O)N[C@@H](CC(N)=O)C(=O)N4C[C@H](O)C[C@H]4C(=O)N4C[C@H](O)C[C@H]4C(=O)N[C@@H](CC(N)=O)C(=O)N[C@@H](CCC(N)=O)C(=O)O)NC(=O)[C@H](Cc4c[nH]cn4)NC(=O)[C@H](Cc4ccccc4)NC(=O)[C@H](CC(N)=O)NC(=O)[C@H](Cc4c[nH]c5ccccc45)NC(=O)CNC(=O)[C@H](CSSC[C@H](NC(=O)[C@H](Cc4ccccc4)NC(=O)[C@H](CO)NC(=O)CNC(=O)[C@H]([C@@H](C)O)NC(=O)[C@H](C)NC1=O)C(=O)N[C@@H]([C@@H](C)O)C(=O)N[C@@H](CC(C)C)C(=O)N[C@@H](CO)C(=O)N[C@@H](CCCCN)C(=O)NCC(=O)N3)NC(=O)[C@H](CC(N)=O)NC(=O)[C@H](CCCCN)NC(=O)[C@H]([C@@H](C)O)NC2=O [Nemertide α-5]
pIC50: > 6.00
